What is called IC50 is the midpoint of a concentration-inhibition curve. A low value points to inhibition by little substance.

Test [1] addresses T1, MGLL (Mus musculus, UniProt O35678).
T1 construct: Brain; from tissue; host or cells: mouse brain proteome
T1 sequence (O35678 1-303): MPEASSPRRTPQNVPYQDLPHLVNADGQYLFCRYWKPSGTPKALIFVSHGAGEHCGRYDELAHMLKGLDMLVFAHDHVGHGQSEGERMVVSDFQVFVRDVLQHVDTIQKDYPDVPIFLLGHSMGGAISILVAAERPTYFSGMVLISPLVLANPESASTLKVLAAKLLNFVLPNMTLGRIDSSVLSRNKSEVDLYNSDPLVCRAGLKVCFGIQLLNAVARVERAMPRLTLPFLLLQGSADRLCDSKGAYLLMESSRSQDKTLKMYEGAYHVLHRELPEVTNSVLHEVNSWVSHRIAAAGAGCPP
Kind of test: In vitro competitive activity-based protein profiling, mouse brain proteome. The class given is biochemical. Here is the method: [Worded in the source for another species; this species is reported under the same test.] (§1) Proteomes (human prefrontal cortex or cell membrane fractions) (50 μL, 1.0 mg/mL total protein concentration) were preincubated with varying concentrations of inhibitors at 37° C. After 30 min, FP—Rh or HT-01 (1.0 μL, 50 μM in DMSO) was added and the mixture was incubated for another 30 min at room temperature. Reactions were quenched with SDS loading buffer (15 μL-4×) and run on SDS-PAGE.

Test [2] concerns the target T2, ABHD6 (Mus musculus, UniProt Q8R2Y0).
T2 construct: Brain; from tissue; host or cells: mouse brain proteome
T2 sequence (Q8R2Y0 1-336): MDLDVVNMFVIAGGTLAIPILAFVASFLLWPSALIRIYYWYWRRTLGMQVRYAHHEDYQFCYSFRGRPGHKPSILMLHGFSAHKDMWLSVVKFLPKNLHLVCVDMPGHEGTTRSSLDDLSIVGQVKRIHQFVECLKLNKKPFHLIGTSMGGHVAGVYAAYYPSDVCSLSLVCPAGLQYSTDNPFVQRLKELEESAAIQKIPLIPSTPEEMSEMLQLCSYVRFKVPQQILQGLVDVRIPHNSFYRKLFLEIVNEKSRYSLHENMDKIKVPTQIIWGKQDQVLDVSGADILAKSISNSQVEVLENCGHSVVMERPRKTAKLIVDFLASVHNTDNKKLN
Kind of test: In vitro competitive activity-based protein profiling, mouse brain proteome, ABHD6. The class given is biochemical. Conditions: mouse. Here is the method: [Worded in the source for another target; this target is reported under the same test.] as §1

The structures appear in SMILES notation. A value given as a limit tells only on which side of the number the result lay.

With `Cc1cccc(CN2CC3(CCN(C(=O)OC(C(F)(F)F)C(F)(F)F)CC3)C2)c1` [Example 86, 1,1,1,3,3,3-Hexafluoropropan-2-yl 2-(3-methylbenzyl)-2,7-diazaspiro[3.5]nonane-7-carboxylate], the IC50 in test [1] and in test [2] was < 100 nM in each case.
Consider `O=C(OC(C(F)(F)F)C(F)(F)F)N1CCC2(CC1)CN(Cc1cccc(C(F)(F)F)c1)C2` [Example 89, 1,1,1,3,3,3-Hexafluoropropan-2-yl 2-(3-(trifluoromethyl)benzyl)-2,7-diazaspiro[3.5]nonane-7-carboxylate], for which the IC50 in test [1] and in test [2] was < 100 nM each time.
On to `O=C(OC(C(F)(F)F)C(F)(F)F)N1CC2(CCN(Cc3c(N4CCCC4)cccc3C(F)(F)F)CC2)C1` [Example 148, 1,1,1,3,3,3-Hexafluoropropan-2-yl 7-(2-(pynrolidin-1-yl)-4-(trifluoromethyl)benzyl)-2,7-diazaspiro[3.5]nonane-2-carboxylate], for which the IC50 in test [1] and in test [2] was 100 to 1000 nM in each case.
For `CC(=O)N1CCCc2cccc(CN3CCC4(CC3)CN(C(=O)OC(C(F)(F)F)C(F)(F)F)C4)c21` [Example 152, 1,1,1,3,3,3-Hexafluoropropan-2-yl 7-((1-acetyl-1,2,3,4-tetrahydroquinolin-8-yl)methyl)-2,7-diazaspiro[3.5]nonane-2-carboxylate], the IC50 in test [1] and in test [2] was < 100 nM in each case.
`CN1CC2(CCN(c3cc(Cl)ccc3CN3CCN(C(=O)OC(C(F)(F)F)C(F)(F)F)CC3)C2)C1` [Example 169, 1,1,1,3,3,3-Hexafluoropropan-2-yl 4-(4-chloro-2-(2-methyl-2,6-diazaspiro[3.4]octan-6-yl)benzyl)piperazine-1-carboxylate]: the results for the IC50 in test [1] and in test [2] were 100 to 1000 nM and > 1000 nM, respectively.
Taken in the same sequence, the figures for `CCN1CCC2(CCN(c3cc(Cl)ccc3CN3CCN(C(=O)OC(C(F)(F)F)C(F)(F)F)CC3)CC2)C1` [Example 170, 1,1,1,3,3,3-Hexafluoropropan-2-yl 4-(4-chloro-2-(2-ethyl-2,8-diazaspiro[4.5]decan-8-yl)benzyl)piperazine-1-carboxylate] were 100 to 1000 nM and > 1000 nM.
For `CCN1CC2(CCN(c3cc(Cl)ccc3CN3CCN(C(=O)OC(C(F)(F)F)C(F)(F)F)CC3)C2)C1` [Example 173, 1,1,1,3,3,3-Hexafluoropropan-2-yl 4-(4-chloro-2-(2-ethyl-2,6-diazaspiro[3.4]octan-6-yl)benzyl)piperazine-1-carboxylate], in that order: 100 to 1000 nM and > 1000 nM.
Taken in the same sequence, the figures for `O=C(OC(C(F)(F)F)C(F)(F)F)N1CCC2(CCN(Cc3ccc(C(F)(F)F)cc3N3CC4COCC4C3)CC2)C1` (stereo not shown) [Example 188, 1,1,1,3,3,3-Hexafluoropropan-2-yl 8-(2-(tetrahydro-1H-furo[3,4-c]pyrrol-5(3H)-yl)-4-(trifluoromethyl)benzyl)-2,8-diazaspiro[4.5]decane-2-carboxylate] were 100 to 1000 nM and > 1000 nM.
Take `CC(=O)N1CCCc2cccc(CN3CCC4(CC3)CCN(C(=O)OC(C(F)(F)F)C(F)(F)F)C4)c21` [Example 193, 1,1,1,3,3,3-Hexafluoropropan-2-yl 8-((1-acetyl-1,2,3,4-tetrahydroquinolin-8-yl)methyl)-2,8-diazaspiro[4.5]decane-2-carboxylate]: the IC50 in test [1] and in test [2] was > 1000 nM throughout.
As to `CC(=O)N1CC2CN(c3cc(C(F)(F)F)ccc3CN3CCN(C(=O)OC(C(F)(F)F)C(F)(F)F)CC3)CC2C1` (stereo not shown) [Example 200, 1,1,1,3,3,3-Hexafluoropropan-2-yl 4-(2-(5-acetylhexahydropyrrolo[3,4-c]pyrrol-2(1H)-yl)-4-(trifluoromethyl)benzyl)piperazine-1-carboxylate], the values for the IC50 in test [1] and in test [2] were < 100 nM and > 1000 nM, respectively.
Taken in the same sequence, the figures for `CS(=O)(=O)N1CC2CN(c3cc(C(F)(F)F)ccc3CN3CCN(C(=O)OC(C(F)(F)F)C(F)(F)F)CC3)CC2C1` (stereo not shown) [Example 201, 1,1,1,3,3,3-Hexafluoropropan-2-yl 4-(2-(5-(methylsulfonyl)hexahydropyrrolo[3,4-c]pyrrol-2(1H)-yl)-4-(trifluoromethyl)benzyl)piperazine-1-carboxylate] were < 100 nM and > 1000 nM.
For `CC(=O)N1CC2CN(c3cc(Cl)ccc3CN3CCN(C(=O)OC(C(F)(F)F)C(F)(F)F)CC3)CC2C1` (stereo not shown) [Example 202, 1,1,1,3,3,3-Hexafluoropropan-2-yl 4-(2-(5-acetylhexahydro-pyrrolo[3,4-c]pyrrol-2(1H)-yl)-4-chlorobenzyl) piperazine-1-carboxylate], in that order: 100 to 1000 nM and > 1000 nM.
Taken in the same sequence, the figures for `CS(=O)(=O)N1CC2CN(c3cc(Cl)ccc3CN3CCN(C(=O)OC(C(F)(F)F)C(F)(F)F)CC3)CC2C1` (stereo not shown) [Example 203, 1,1,1,3,3,3-Hexafluoropropan-2-yl 4-(4-chloro-2-(5-(methylsulfonyl)hexahydropyrrolo[3,4-c]pyrrol-2(1H)-yl)benzyl)piperazine-1-carboxylate] were 100 to 1000 nM and > 1000 nM.
Turning to `CC(=O)N1CCCC12CCN(c1cc(Cl)ccc1CN1CCN(C(=O)OC(C(F)(F)F)C(F)(F)F)CC1)CC2` [Example 204, 1,1,1,3,3,3-Hexafluoropropan-2-yl 4-(2-(1-acetyl-1,8-diazaspiro[4.5]decan-8-yl)-4-chlorobenzyl) piperazie-1-carboxylate], the IC50 is 100 to 1000 nM in test [1] and > 1000 nM in test [2].
For `CS(=O)(=O)N1CCCC12CCN(c1cc(Cl)ccc1CN1CCN(C(=O)OC(C(F)(F)F)C(F)(F)F)CC1)CC2` [Example 205, 1,1,1,3,3,3-Hexafluoropropan-2-yl 4-(4-chloro-2-(1-(methylsulfonyl)-1,8-diazaspiro[4.5]decan-8-yl)benzyl)piperazine-1-carboxylate], in that order: 100 to 1000 nM and > 1000 nM.
Taken in the same sequence, the figures for `CN1CC2CN(c3cc(Cl)ccc3CN3CCN(C(=O)OC(C(F)(F)F)C(F)(F)F)CC3)CC2C1` (stereo not shown) [Example 206, 1,1,1,3,3,3-Hexafluoropropan-2-yl 4-(4-chloro-2-(5-methylhexahydro-pyrrolo[3,4-c]pyrrol-2(1H)-yl)benzyl)piperazine-1-carboxylate] were 100 to 1000 nM and > 1000 nM.
`CC(=O)N1CCCC12CCN(c1cc(C(F)(F)F)ccc1CN1CCN(C(=O)OC(C(F)(F)F)C(F)(F)F)CC1)CC2` [Example 208, 1,1,1,3,3,3-Hexafluoropropan-2-yl 4-(2-(1-acetyl-1,8-diazaspiro[4.5]decan-8-yl)-4-(trifluoromethyl)benzyl)piperazine-1-carboxylate]: the IC50 in test [1] was 100 to 1000 nM; in test [2] it was > 1000 nM.
Taken in the same sequence, the figures for `CS(=O)(=O)N1CCCC12CCN(c1cc(C(F)(F)F)ccc1CN1CCN(C(=O)OC(C(F)(F)F)C(F)(F)F)CC1)CC2` [Example 209, 1,1,1,3,3,3-Hexafluoropropan-2-yl-((2-(1-(methylsulfonyl)-1,8-diazaspiro[4.5]decan-8-yl)-4-(trifluoromethyl)benzyl)piperazine-1-carboxylate] were < 100 nM and 100 to 1000 nM.
Taken in the same sequence, the figures for `CN1CCCC12CCN(c1cc(Cl)ccc1CN1CCN(C(=O)OC(C(F)(F)F)C(F)(F)F)CC1)CC2` [Example 214, 1,1,1,3,3,3-Hexafluoropropan-2-yl 4-(4-chloro-2-(1-methyl-1,8-diazaspiro[4.5]decan-8-yl)benzyl)piperazine-1--carboxylate] were 100 to 1000 nM and > 1000 nM.
For `CN1CCCC12CCN(c1cc(C(F)(F)F)ccc1CN1CCN(C(=O)OC(C(F)(F)F)C(F)(F)F)CC1)CC2` [Example 215, 1,1,1,3,3,3-Hexafluoropropan-2-yl 4-(2-(1-methyl-1,8-diazaspiro[4.5]decan-8-yl)-4-(trifluoromethyl)benzyl)piperazine-1-carboxylate], in that order: 100 to 1000 nM and > 1000 nM.
As for `CS(=O)(=O)N1CCc2cccc(CN3CCC4(CC3)CCN(C(=O)OC(C(F)(F)F)C(F)(F)F)C4)c2C1` [Example 217, 1,1,1,3,3,3-Hexafluoropropan-2-yl 8-((2-(methylsulfonyl)-1,2,3,4-tetrahydroisoquinolin-8-yl)methyl)-2,8-diazaspiro[4.5]decane-2-carboxylate], the IC50 was < 100 nM in test [1] and 100 to 1000 nM in test [2].
Taken in the same sequence, the figures for `CC(=O)N1CC2(CCN(c3ccccc3CN3CCC34CCN(C(=O)OC(C(F)(F)F)C(F)(F)F)CC4)C2)C1` [Example 228, 1,1,1,3,3,3-Hexafluoropropan-2-yl 1-(2-(2-acetyl-2,6-diazaspiro[3.4]octan-6-yl)benzyl)-1,7-diazaspiro[3.5]nonane-7-carboxylate] were 100 to 1000 nM and > 1000 nM.
Taken in the same sequence, the figures for `CS(=O)(=O)N1CCC2(CCN(c3cc(Cl)cc(CN4CCCC45CN(C(=O)OC(C(F)(F)F)C(F)(F)F)C5)c3)CC2)C1` [Example 232] were > 1000 nM and 100 to 1000 nM.

For the origin of these results see patent publication US20210214375A1 (LUNDBECK LA JOLLA RESEARCH CENTER, INC., priority 2017, published 2021).
